Source: the NIST ThermoML archive (doi:10.1016/j.jct.2006.03.020)
± gives the expanded uncertainty stated by the source.

Assays:
[1] = 298.15 K; 101.33 kPa; Liquid
[2] = excess molar enthalpy (molar enthalpy of mixing); xn = mol fraction of the nth substance listed; settings: 298.15 K, 101 kPa, Liquid, Flow calorimetry

SMILES: CC1CCCO1 (stereo not drawn) [2-methyltetrahydrofuran]
- mass density [1]: 848.1 ± 0.89 kg/m3

SMILES: C=CCCCC [hex-1-ene]
- mass density [1]: 668.73 ± 1.4 kg/m3

SMILES: C=CCCCC [hex-1-ene] + C1CCOC1
- excess molar enthalpy ([2]; x1 = 0.0501): 0.0161 ± 0.000454 kcal/mol
- excess molar enthalpy ([2]; x1 = 0.097): 0.0304 ± 0.000669 kcal/mol
- excess molar enthalpy ([2]; x1 = 0.1507): 0.0446 ± 0.000884 kcal/mol
- excess molar enthalpy ([2]; x1 = 0.1994): 0.055 ± 0.00105 kcal/mol
- excess molar enthalpy ([2]; x1 = 0.2501): 0.0649 ± 0.00122 kcal/mol
- excess molar enthalpy ([2]; x1 = 0.3003): 0.0729 ± 0.00136 kcal/mol
- excess molar enthalpy ([2]; x1 = 0.3499): 0.0788 ± 0.00146 kcal/mol
- excess molar enthalpy ([2]; x1 = 0.3999): 0.0834 ± 0.00153 kcal/mol
- excess molar enthalpy ([2]; x1 = 0.45): 0.0859 ± 0.00158 kcal/mol
- excess molar enthalpy ([2]; x1 = 0.4977): 0.0876 ± 0.0016 kcal/mol
- excess molar enthalpy ([2]; x1 = 0.5494): 0.0869 ± 0.0016 kcal/mol
- excess molar enthalpy ([2]; x1 = 0.6006): 0.0844 ± 0.00155 kcal/mol
- excess molar enthalpy ([2]; x1 = 0.649): 0.0807 ± 0.00148 kcal/mol
- excess molar enthalpy ([2]; x1 = 0.6905): 0.0761 ± 0.00141 kcal/mol
- excess molar enthalpy ([2]; x1 = 0.7499): 0.0675 ± 0.00127 kcal/mol
- excess molar enthalpy ([2]; x1 = 0.7999): 0.0587 ± 0.00112 kcal/mol
- excess molar enthalpy ([2]; x1 = 0.8501): 0.0471 ± 0.000932 kcal/mol
- excess molar enthalpy ([2]; x1 = 0.8995): 0.0335 ± 0.000717 kcal/mol
- excess molar enthalpy ([2]; x1 = 0.95): 0.018 ± 0.000478 kcal/mol

SMILES: COC(C)(C)C [2-methoxy-2-methylpropane]
- mass density [1]: 735.99 ± 0.74 kg/m3

SMILES: C1CCOC1 [tetrahydrofuran]
- mass density [1]: 882.09 ± 0.8 kg/m3
